Measurements: the NIST ThermoML archive (doi:10.1021/acs.jced.8b00201)

Assay: xn = mol fraction of the nth substance listed
Details: 100 kPa, Liquid; for viscosity: Concentric cylinders viscometry; for mass density: Vibrating tube method

CCCCCCCCCO [nonan-1-ol] + O=C1CCCCC1
Details	mass density [kg/m3]	viscosity [mPa·s]
293.15 K, x2 = 0	827.5	11.41
293.15 K, x2 = 0.0813	833.2	9.78
293.15 K, x2 = 0.1582	839	8.31
293.15 K, x2 = 0.2378	845.5	6.98
293.15 K, x2 = 0.3573	856.3	5.42
293.15 K, x2 = 0.4381	864.3	4.61
293.15 K, x2 = 0.5589	877.9	3.69
293.15 K, x2 = 0.6488	889.3	3.2
293.15 K, x2 = 0.724	899.9	2.96
293.15 K, x2 = 0.8481	919.6	2.55
293.15 K, x2 = 0.9411	936.8	2.33
298.15 K, x2 = 0	824	9.43
298.15 K, x2 = 0.0813	829.6	8.15
298.15 K, x2 = 0.1582	835.2	6.94
298.15 K, x2 = 0.2378	841.5	5.92
298.15 K, x2 = 0.3573	852.1	4.68
298.15 K, x2 = 0.4381	860	4.01
298.15 K, x2 = 0.5589	873.3	3.21
298.15 K, x2 = 0.6488	884.6	2.8
298.15 K, x2 = 0.724	895	2.59
298.15 K, x2 = 0.8481	914.4	2.24
298.15 K, x2 = 0.9411	931.2	2.11
303.15 K, x2 = 0	820.5	7.86
303.15 K, x2 = 0.0813	825.9	6.78
303.15 K, x2 = 0.1582	831.5	5.87
303.15 K, x2 = 0.2378	837.7	5.03
303.15 K, x2 = 0.3573	848.1	4.03
303.15 K, x2 = 0.4381	855.9	3.49
303.15 K, x2 = 0.5589	869.1	2.87
303.15 K, x2 = 0.6488	880.2	2.53
303.15 K, x2 = 0.724	890.5	2.37
303.15 K, x2 = 0.8481	909.6	2.08
303.15 K, x2 = 0.9411	926.3	1.95
308.15 K, x2 = 0	817.1	6.61
308.15 K, x2 = 0.0813	822.4	5.73
308.15 K, x2 = 0.1582	827.9	4.96
308.15 K, x2 = 0.2378	834	4.31
308.15 K, x2 = 0.3573	844.3	3.51
308.15 K, x2 = 0.4381	852	3.08
308.15 K, x2 = 0.5589	865	2.57
308.15 K, x2 = 0.6488	876	2.3
308.15 K, x2 = 0.724	886.2	2.16
308.15 K, x2 = 0.8481	905.2	1.93
308.15 K, x2 = 0.9411	921.7	1.79
313.15 K, x2 = 0	813.6	5.6
313.15 K, x2 = 0.0813	818.9	4.85
313.15 K, x2 = 0.1582	824.2	4.2
313.15 K, x2 = 0.2378	830.2	3.68
313.15 K, x2 = 0.3573	840.3	3.04
313.15 K, x2 = 0.4381	847.9	2.71
313.15 K, x2 = 0.5589	860.8	2.33
313.15 K, x2 = 0.6488	871.6	2.13
313.15 K, x2 = 0.724	881.8	2.02
313.15 K, x2 = 0.8481	900.6	1.81
313.15 K, x2 = 0.9411	917.1	1.67
318.15 K, x2 = 0	810.1	4.78
318.15 K, x2 = 0.0813	815.3	4.18
318.15 K, x2 = 0.1582	820.5	3.67
318.15 K, x2 = 0.2378	826.4	3.22
318.15 K, x2 = 0.3573	836.4	2.66
318.15 K, x2 = 0.4381	844	2.37
318.15 K, x2 = 0.5589	856.7	2.03
318.15 K, x2 = 0.6488	867.4	1.85
318.15 K, x2 = 0.724	877.5	1.77
318.15 K, x2 = 0.8481	896.3	1.59
318.15 K, x2 = 0.9411	912.8	1.5
323.15 K, x2 = 0	806.5	4.1
323.15 K, x2 = 0.0813	811.6	3.61
323.15 K, x2 = 0.1582	816.8	3.2
323.15 K, x2 = 0.2378	822.7	2.84
323.15 K, x2 = 0.3573	832.6	2.4
323.15 K, x2 = 0.4381	840.1	2.17
323.15 K, x2 = 0.5589	852.8	1.9
323.15 K, x2 = 0.6488	863.6	1.75
323.15 K, x2 = 0.724	873.7	1.67
323.15 K, x2 = 0.8481	892.5	1.49
323.15 K, x2 = 0.9411	908.9	1.4
